Assay results from patent US20240199587A1, “HETEROCYCLIC COMPOUNDS” (Hoffmann-La Roche Inc., priority 2021, published 2024).

Each compound was assayed against T1, MAGL (Homo sapiens, UniProt Q99685) (assay: 2-AG assay (MAGL inhibitory activity, hydrolysis of 2-arachidonoylglycerol to arachidonic acid followed by mass spectrometry)). Conditions: 8 μM 2-arachidonoylglycerol, 15 min pre-incubation, 30 min incubation at RT, RapidFire MS readout.
T1 sequence (Q99685 1-303): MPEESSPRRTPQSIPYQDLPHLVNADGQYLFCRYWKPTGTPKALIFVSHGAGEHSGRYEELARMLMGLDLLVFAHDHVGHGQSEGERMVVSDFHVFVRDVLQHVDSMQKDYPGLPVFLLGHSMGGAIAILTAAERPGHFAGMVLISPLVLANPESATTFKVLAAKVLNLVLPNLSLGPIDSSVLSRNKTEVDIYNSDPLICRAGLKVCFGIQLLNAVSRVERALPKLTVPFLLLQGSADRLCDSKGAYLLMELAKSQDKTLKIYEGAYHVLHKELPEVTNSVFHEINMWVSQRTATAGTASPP
Assay type: biochemical
Summary of the method: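 Arachidonic acid released from 8 μM 2-arachidonoylglycerol was quantified by online SPE triple-quadrupole MS (negative ESI, 303.1→259.1), normalised to d8-arachidonic acid internal standard. Reaction ran 30 min at RT after 15 min RT compound pre-incubation with […] MAGL in TRIS/EDTA/Tween-20 buffer, 2.5% DMSO.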

Row | Structure (SMILES) | IC50 [µM]
1 | CC(C)(C)c1nc(-c2ccc(C(=O)N3CC4(CC(n5ncnc5C5CC5)C4)C3)cc2)no1 [Example 17, [4-(5-tert-butyl-1,2,4-oxadiazol-3-yl)phenyl]-[6-(5-cyclopropyl-1,2,4-triazol-1-yl)-2-azaspiro[3.3]heptan-2-yl]methanone] | 3.36
2 | O=C(c1cnc(OCC2(C(F)(F)F)CC2)c(F)c1)N1CC2(CC(n3cnc(C4CC4)c3)C2)C1 [Example 28, [6-(4-cyclopropylimidazol-1-yl)-2-azaspiro[3.3]heptan-2-yl]-[5-fluoro-6-[[1-(trifluoromethyl)cyclo-propyl]methoxy]-3-pyridyl]methanone] | 0.05
3 | O=C(N1CC2(CC(n3cnc(C4(O)CC4)n3)C2)C1)N1CC2(CC[C@H](Cc3ccc(S(=O)(=O)C(F)(F)F)cc3)C2)C1 [Example 363, [6-[3-(1-hydroxycyclopropyl)-1,2,4-triazol-1-yl]-2-azaspiro[3.3]heptan-2-yl]-[(6R)-6-[[4-(trifluoromethylsulfonyl)phenyl]methyl]-2-azaspiro[3.4]octan-2-yl]methanone] | 0.00135
4 | CC1C(OCc2ccc(C(F)(F)F)cc2)CN1C(=O)N1CC2(CC(n3cnc(C4CC4)n3)C2)C1 (stereo not drawn) [Example 138, [6-(3-cyclopropyl-1,2,4-triazol-1-yl)-2-azaspiro[3.3]heptan-2-yl]-[2-methyl-3-[[4-(trifluoromethyl)phenyl]methoxy]azetidin-1-yl]methanone] | 0.0008
5 | N#Cc1cc(C(F)(F)F)ccc1O[C@H]1C[C@@H]2CN(C(=O)N3CC4(CC(n5cnc(C6CC6)n5)C4)C3)C[C@@H]2C1 [Example 114, 2-[[rac-(3aS,6aR)-2-[6-(3-cyclopropyl-1,2,4-triazol-1-yl)-2-azaspiro[3.3]heptane-2-carbonyl]-3,3a,4,5,6,6a-hexahydro-1H-cyclopenta[c]pyrrol-5-yl]oxy]-5-(trifluoromethyl) benzonitrile] | 0.0104
6 | O=C(N1CC2(CC(Oc3ccc(F)cc3Cl)C2)C1)N1CC2(CC(n3cnc(C4CC4)n3)C2)C1 [Example 45, [6-(2-chloro-4-fluoro-phenoxy)-2-azaspiro[3.3]heptan-2-yl]-[6-(3-cyclopropyl-1,2,4-triazol-1-yl)-2-azaspiro[3.3]heptan-2-yl]methanone] | 0.0002
7 | O=C(N1CC(C23CC(NCC4(C(F)(F)F)CC4)(C2)C3)C1)N1CC2(CC(n3cnc(C4(O)CC4)n3)C2)C1 [Example 395, [6-[3-(1-hydroxycyclopropyl)-1,2,4-triazol-1-yl]-2-azaspiro[3.3]heptan-2-yl]-[3-[3-[[1-(trifluoromethyl)cyclopropyl]methylamino]-1-bicyclo[1.1.1]pentanyl]azetidin-1-yl]methanone] | 0.0147
8 | O=C(N1CC2(CC(Oc3cncc(F)c3)C2)C1)N1CC2(CC(n3cnc(C4CC4)n3)C2)C1 [Example 63, (6-(3-cyclopropyl-1H-1,2,4-triazol-1-yl)-2-azaspiro[3.3]heptan-2-yl)(6-((5-fluoropyridin-3-yl)oxy)-2-azaspiro[3.3]heptan-2-yl)methanone] | 0.0198
9 | O=C(N1CC2(CC(Cc3ccc(F)cn3)C2)C1)N1CC2(CC(n3cnc(C4(O)CC4)n3)C2)C1 [Example 390, [6-[(5-fluoro-2-pyridyl)methyl]-2-azaspiro[3.3]heptan-2-yl]-[6-[3-(1-hydroxycyclopropyl)-1,2,4-triazol-1-yl]-2-azaspiro[3.3]heptan-2-yl]methanone] | 0.0301
10 | O=C(N1CC(c2cn(C3(C(F)(F)F)CC3)nn2)C1)N1CC2(CC(n3cnc(C4CC4)n3)C2)C1 [Example 164, [6-(3-cyclopropyl-1,2,4-triazol-1-yl)-2-azaspiro[3.3]heptan-2-yl]-[3-[1-[1-(trifluoromethyl)cyclo-propyl]triazol-4-yl]azetidin-1-yl]methanone] | 0.0646
11 | O=C(N1CC2(CC(n3cnc(C4CC4)n3)C2)C1)N1CC2(CN(Cc3cc(F)cc(F)c3)C2)C1 [Example 221, [6-(3-cyclopropyl-1,2,4-triazol-1-yl)-2-azaspiro[3.3]heptan-2-yl]-[6-[(3,5-difluorophenyl)methyl]-2,6-diazaspiro[3.3]heptan-2-yl]methanone] | 0.0025
12 | Cc1cc(C2CC2)n(C23CC(C4CN(C(=O)N5CC6(CC(n7cnc(C8(O)CC8)n7)C6)C5)C4)(C2)C3)n1 [Example 355, [3-[3-(5-cyclopropyl-3-methyl-pyrazol-1-yl)-1-bicyclo[1.1.1]pentanyl]azetidin-1-yl]-[6-[3-(1-hydroxycyclopropyl)-1,2,4-triazol-1-yl]-2-azaspiro[3.3]heptan-2-yl]methanone] | 0.134
13 | O=C(N1CC(Oc2ccc(C(F)(F)F)c(C3CC3)c2)C1)N1CC2(CC(c3cncc(F)c3)C2)C1 [Example 512] | 0.356
14 | CC1(Cc2nnc(-c3ccc(C4CN(C(=O)N5CC6(CC(n7cnc(C(F)(F)F)n7)C6)C5)C4)cc3)[nH]2)CC1 [Example 425, [3-[4-[5-[(1-methylcyclopropyl)methyl]-4H-1,2,4-triazol-3-yl]phenyl]azetidin-1-yl]-[6-[3-(trifluoromethyl)-1,2,4-triazol-1-yl]-2-azaspiro[3.3]heptan-2-yl]methanone] | 0.00555
15 | O=C(N1CC(CNS(=O)(=O)c2ccc(F)cc2C(F)(F)F)C1)N1CC2(CC(n3cnc(C4CC4)n3)C2)C1 [Example 302] | 0.101
16 | O=C(N1CC2(CC(Cc3cnc(C(F)(F)F)cn3)C2)C1)N1CC2(CC(n3cnc(C4(O)CC4)n3)C2)C1 [Example 487, [6-[3-(1-hydroxycyclopropyl)-1,2,4-triazol-1-yl]-2-azaspiro[3.3]heptan-2-yl]-[6-[[5-(trifluoromethyl)pyrazin-2-yl]methyl]-2-azaspiro[3.3]heptan-2-yl]methanone] | 0.00393
17 | O=C(N1CC2(CC(n3cnc(C4CC4)n3)C2)C1)N1CC2(CCN(Cc3cnc(C(F)(F)F)cn3)C2)C1 [Example 437] | 0.00637
18 | CC(C)(C)c1nc(-c2ccc(C(=O)N3CC4(CC(n5ncc6c5CCCC6)C4)C3)cc2)no1 [Example 22, [4-(5-tert-butyl-1,2,4-oxadiazol-3-yl)phenyl]-[6-(4,5,6,7-tetrahydroindazol-1-yl)-2-azaspiro[3.3]heptan-2-yl]methanone] | 0.451
19 | O=C(N1CC(NCc2ccc(C(F)(F)F)cc2F)C1)N1CC2(CC(n3cnc(C4CC4)n3)C2)C1 [Example 262, [6-(3-cyclopropyl-1,2,4-triazol-1-yl)-2-azaspiro[3.3]heptan-2-yl]-[3-[[2-fluoro-4-(trifluoromethyl)phenyl]methylamino]azetidin-1-yl]methanone] | 0.0252
20 | O=C(N1CC2(CC(Oc3cncc(C(F)(F)F)n3)C2)C1)N1CC2(CC(n3cnc(C4CC4)n3)C2)C1 [Example 51, (6-(3-cyclopropyl-1H-1,2,4-triazol-1-yl)-2-azaspiro[3.3]heptan-2-yl)(6-((6-(trifluoromethyl)pyrazin-2-yl)oxy)-2-azaspiro[3.3]heptan-2-yl)methanone] | 0.0003
21 | CC1(Cc2nnc(-c3ccc(C4CN(C(=O)N5CC6(CC(n7cnc(C8(O)CC8)n7)C6)C5)C4)cc3)[nH]2)CC1 [Example 394, [6-[3-(1-hydroxycyclopropyl)-1,2,4-triazol-1-yl]-2-azaspiro[3.3]heptan-2-yl]-[3-[4-[5-[(1-methylcyclopropyl)methyl]-4H-1,2,4-triazol-3-yl]phenyl]azetidin-1-yl]methanone] | 0.0437
